The test system of data set [1] is influenza A/FM/1/47(H1N1). In words: microbe, parasite or virus in culture. The format is cell-based, influenza A virus.
In data set [2] the test system is influenza virus M2 protein expression. The format is cell-based, influenza virus A/Wuhan/359/95.
Data set [3] relates to influenza A/Hanfang/359/95(H3N2). The data set can be described thus: microbe, parasite or virus in culture. In kind it is cell-based, influenza A virus.
Data set [4] has as its system influenza B (B/Jifang/13/97). In words: Anti-influenza CPE assay in MDCK cells, oseltamivir-null B/Jifang/13/97. In kind it is cell-based. The conditions noted are these: Influenza B virus, read-out: IC50 B/Jifang/13/97.
In data set [5] the test system is neuraminidase of the two influenza virus A strain. In words: Neuraminidase inhibition assay (MUNANA), two influenza A strains. The format is biochemical. As to conditions: MUNANA substrate.
For data set [6], the system named is influenza A/FM/1/47-MA (H1N1) virus. In kind it is in vivo, mice. The conditions noted are these: for numbers of surviving animals: survivors/total; for Mean lung score / Lung consolidation: day 6 post-virus exposure; for Lung consolidation: score 0-4; for Mean day to death: b.i.d x 7, mean survival time of mice dying on or before day 14.
A further data set concerns viral hemagglutinin. In words: Hemagglutination inhibition assay. As to conditions: 2 fold serial diluted from 40 μg/mL, chicken erythrocytes. The format is biochemical, influenza virus.
The test system of a further data set is MDCK cells. The data set can be described thus: Cytotoxicity assay in MDCK cells monitored by CPE. The conditions noted are these: 48 h, Table 1.

As usually defined, the melting point is the temperature, or range, at which the solid turns liquid.

Read-outs that look alike come from different tables or passages of the source. Marks after values point to notes of the source that are not given here. A value given as a limit tells only on which side of the number the result lay.

Consider `CCOC(=O)C1=C[C@@H](OC(CC)CC)[C@H](NC(C)=O)[C@@H](N)C1` [Oseltamivir, reference compound], for which the IC50 in data set [1] (Influenza A virus, H1N1, MDCK) is 57.5 µM; in [3] (Influenza A virus, H3N2, MDCK) it was 2.08 µM; in data set [4], above 100 µM. In addition, the “effect on influenza virus M2 protein expression” value in [2] was “has inhibitory effect”.
With `NC12CC3CC(CC(C3)C1)C2` [Amantadine], the “effect on influenza virus M2 protein expression” value in data set [2] is on record as “significantly inhibited”.
Regarding `COC(=O)c1ccc(F)c(O[C@@H]2O[C@H](COC(C)=O)[C@@H](OC(C)=O)[C@H](OC(C)=O)[C@H]2OC(C)=O)c1` [Compound 1a, Methyl 4-fluoro-3-((2S,3R,4S,5R,6R)-3,4,5-triacetoxy-6-(acetoxymethyl)-tetrahydro-2H-pyran-2-yloxy)benzoate], the IC50 amounted to 34.5 µM in data set [1]; 34.4 µM in [1] (Influenza A virus, H1N1, MDCK); 44.4 µM in [3] (Influenza A virus, H3N2, MDCK); 33 µM in data set [4]. Further, in data set [5], the IC50 on neuraminidase was above 40 µg/mL. Besides, in [2] (MDCK cells infected with A/Wuhan/359/95, 300TCID50, 24 hours post infection), the “effect on influenza virus M2 protein expression” value was “no effect”. Also, the entries for the “numbers of surviving animals” value in data set [6] (40 mg/kg/day intragastrically) and in data set [6] (80 mg/kg/day intragastrically) were 1/10 and 6/10, respectively. Also, the figures for the Mean lung score in data set [6] (40 mg/kg/day po) and in data set [6] (80 mg/kg/day po) were 2.61 ± 0.85 and 1.82 ± 0.82, respectively. Further, the Lung consolidation is given as 3.56 in data set [6] (40 mg/kg/day po) and 2.25 in data set [6] (80 mg/kg/day po). In data set [6] (80 mg/kg/day po), the “Mean day to death” value is given as 11.3 days. Besides, the “inhibitory effect on hemagglutination” value in the data set on viral hemagglutinin is reported as “did not show an inhibitory effect”.
As to `NC(=O)c1ncn([C@@H]2O[C@H](CO)[C@@H](O)[C@H]2O)n1` [Ribavirin, reference compound], in data set [1] (Influenza A virus, H1N1, MDCK), the IC50 was found to be 13.5 µM. Moreover, the “effect on influenza virus M2 protein expression” value in [2] is “significant inhibitory effect”. In addition, the “influenza virus induced cytopathic effect” value in data set [3] (10 μg/mL, strain not given) is listed as “completely inhibits”. Besides, in [3] (Influenza A virus, H3N2, MDCK), the IC50 is 11.9 µM. Also, in [6] (100 mg/kg/day po), the “Mean day to death” value was 14.0 * days, the Mean lung score is given as 1.31 ± 0.34 and the Lung consolidation is reported as 0.50 *. The “% Survivors” value in [6] (mouse, in vivo) is on record as 100 (10/10) %. Further, in data set [4], the IC50 was found to be 11.4 µM.
Consider `COC(=O)c1ccc(F)cc1O[C@@H]1O[C@H](COC(C)=O)[C@H](OC(C)=O)[C@H](OC(C)=O)[C@H]1OC(C)=O` [Compound 8b, Methyl 4-fluoro-2-((2S,3R,4S,5S,6R)-3,4,5-triacetoxy-6-(acetoxymethyl)-tetrahydro-2H-pyran-2-yloxy)benzoate], for which the melting point lay in the range of 136 to 138 °C. The IC50 in data set [1] (Influenza A virus, H1N1, MDCK) is above 400 µM. In [3] (Influenza A virus, H3N2, MDCK), this molecule displayed an IC50 above 400 µM. In the data set on MDCK cells, this molecule had a TC50 above 399.66 µM.
For the molecule “Ethyl 4-fluoro-2-((2S,3R,4S,5R,6R)-3,4,5-triacetoxy-6-(acetoxymethyl)-tetrahydro-2H-pyran-2-yloxy)-benzoate [Compound 8a]”, the IC50 in [1] is 83.7 µM; in data set [3], 44.4 µM. In the data set with MDCK cells, the TC50 is 277.10 µM.
